Test results reported in US8022036B2, “Use of thymosin alpha 1 for the treatment of immunological diseases” (Sigma-Tau Industrie Farmaceutiche Riunite S.p.A., priority 2006, dated 2011).
No end group written: not given here.

Columns and labels:
GM-DCs or FL-DCs [1] = assay: Phagocytosis of Aspergillus conidia by human GM- or FL-DCs; type: cell-based
Text: (§1) GM-DCs or FL-DCs were obtained from purified CD14+ monocytes from healthy donors or transplanted patients (1 month post-HSCT) cultured in Iscove's modified medium for 7-9 days, in the presence of rGM-CSF (Schering-Plough, Milan, Italy) and rIL-4 (Peprotech, Inalco, Milan, Italy) or FLT3-L (Immunex Corporation, Seattle, Wash.) (Blood. 2004; 103:4232-4239). DC recovery was between 20-30% reduced in cultures from transplanted patients. Murine GM-DCs or FL-DCs were obtained from bone marrow cells for 7-9 days, as described (Blood. 2004; 103:4232-4239). Thymosin alpha 1 and sThymosin alpha 1 were added to the cultures at 20 ng/mL. DCs (>99% CD11c+ consisting of 90-95% CD8-, 5-10% CD8+, and 1-5% B220+ cells) were purified from spleens (spDCs) by magnetic-activated sorting using CD11c MicroBeads and MidiMacs (Miltenyi Biotech). DC populations were further separated into CD8−, CD8+ and B220+ fractions by means of CD8 or B220 MicroBeads (Miltenyi Biotech). DCs were pulsed in serum-free Iscove medium for 24 hours with live unopsonized Aspergillus conidia or Zymosan from Saccharomyces cerevisiae (Sigma) or CpG-ODN 2006 as described.7 Phagocytosis was done as described (Blood. 2004; 103:4232-4239). Photographs were taken using a high Resolution Microscopy Color Camera AxioCam, using the AxioVision Software Rel. 3.1 (Carl Zeiss, Milan, Italy).
(B) Phagocytosis of conidia by GM- or FL-DCs exposed (+) or not (−) to Thymosin alpha 1 from seven recipients of Tcell depleted haploidentical HSCT. The data are the means±SE and expressed as % internalization (numbers within figures). (*) P<0.05, Thymosin alpha 1-treated versus untreated cells.

GM-DCs or FL-DCs [2] = assay: Cytokine production (ELISA) by murine GM-DCs or FL-DCs with Aspergillus conidia; type: cell-based, mouse
Text: as §1
Cytokine content was assessed by enzyme-linked immunosorbent assays (Endogen Human Elisa Kits, R&D Systems and Euroclone, Milan, Italy). AID EliSpot assay kits (Amplimedical, Buttigliera Alta, Turin, Italy) were used on purified splenic CD4+ Tcells cocultured with conidia-pulsed DCs for 5 days to enumerate cytokine-producing cells (Blood. 2003; 102:3807-3814). 1-MT was used at 2 μM.
(B) Cytokine production (ELISA) by GM-DCs or FL-DCs cultured in serum-free medium (1×10^6 cells/mL) with unopsonized Aspergillus conidia (5×10^5/mL) for 24 hours. The IDO inhibitor 1-MT was added at 2 μM. Data are aggregated results from three independent experiments. The detection limits (pg/mL) of the assays were <16 for IL-12p70 and <12 for IL-10.

[3] = test system: TLN CD4+ T lymphocytes, neutrophils; assay: Proliferation of TLN cells and suppressive activity of CD4+CD25+ T reg cells from DC-treated HSCT mice; type: in vivo, mouse
Protocol: IDO expression and functional activity were assessed as described in Nat. Immunol. 2002; 3:1097-1101. Generation, purification and activity of T reg cells Splenic CD4+ T-cells were cocultured with conidia-pulsed DCs for 5 days […] before flow cytometry or ELISPOT assay. 1-MT (Sigma-Aldrich) was used at 2 μM. CD4+CD25+ and CD4+CD25− cells (>90% pure on FACS analysis) were separated by magnetic cell sorting from lung and TLN (J. Immunol. 2006; 176:1712-1723). For T reg cell inhibition, 5×10^4 TLN T reg cells were added to 3×10^5 CD4+CD25− cells, both from transplanted mice, stimulated with 3×10^4 autologous Aspergillus conidia-pulsed spDCs or with or 1.5×10^5 allogeneic spDCs from naïve donor mice for five days before H^3-thymidine labeling. Purified peritoneal CD 11b+Gr−1+PMN (>98% pure on FACS analysis) (2×10^6) were exposed to resting conidia in the presence of 4×10^5 CD4+CD25+ for 60 min for oxidant production or 24 hours for cytokine production (J. Immunol. 2006; 176:1712-1723).
Mice received twice intraperitoneal injections of DCs, at weekly interval, starting a day after HSCT and infected a week after the last DC administration. Three days later, lung homogenates, CD4+ T cells (>98% on FACS analysis), CD4+CD25− (>98%) or CD4+CD25+ (>82%) purified with the specific Miltenyi Biotec isolation kits were assessed for pattern of pro- and anti-inflammatory (TNF-a/IL-10 in lung homogenates), Th1 (IFN-γ) or Th2 (IL-4) cytokine production by CD4+ cells stimulated with Aspergillus-pulsed DCs (Blood. 2003; 102:3807-3814) frequency of CD25+ IL-10^+ TGF-β+ T reg cells, lymphoproliferation and gene expression by RT-PCR. For proliferation, TLN CD4+ T lymphocytes were plated (10^5 cells/well) with 10^5 cells/well irradiated allogeneic splenocytes or autologous spDCs pulsed with conidia or 10 μg/mL Con A for five days before H^3-thymidine labeling.
(A) Murine CD4+ T lymphocytes from TLN of transplanted mice were stimulated with irradiated allogeneic splenocytes, autologous splenic DCs stimulated with conidia or Concanavalin A. T cell proliferation was assessed in a 5-day MLR assay and measured by H^3thymidine incorporation over the last 8 hours, (*) P<0.05, transplanted versus donor mice. (**) P<0.05, T cell- and/or DC-treated mice versus untreated mice. (***) P<0.05, Thymosin alpha 1-treated DCs versus untreated DCs. […] (D) Peritoneal neutrophils (PMN) were exposed to resting conidia in the presence of lung CD4+CD25+ T cells from FL-DCtreated (a) or Thymosin alpha 1-GM-DC-treated mice (b) for 60 min (for oxidant production, expressed as nanomoles O2-/10^6 cells) or 24 hours for cytokine production (pg/mL by ELISA). […]

[4] = in response to Aspergillus conidia, 24 hours
[5] = mice receiving Thymosin alpha 1-treated GM-DCs

Thymosin alpha 1: naturally occurring thymic peptide; supplied as purified, endotoxin-free sterile lyophilized acetylated polypeptide from SciClone Pharmaceuticals (Ac-SDAAVDTSSEITTKDLKEKKEVVEEAEN; UniProt P06454 2-29, looked up)
phagocytosis of GM- and FL-DCs derived from patients (GM-DCs or FL-DCs [1]; patients one month after transplantation): promoted the phagocytosis
phagocytosis in GM-DCs (GM-DCs or FL-DCs [1]; with Thymosin alpha 1 (from 30% without)): 56%
phagocytosis in FL-DCs (GM-DCs or FL-DCs [1]; with Thymosin alpha 1 (from 32% without)): 58%
IL-10 production by cells from TLR9-/- or IFN-aβR-/- mice (GM-DCs or FL-DCs [2]; GM-DCs or FL-DCs, in response to Thymosin alpha 1): did not occur
release of IL-10 and IL-12 by FL-DCs (GM-DCs or FL-DCs [2]; [4]): IL-10, more than IL-12
release of IL-12 and IL-10 by GM-DCs (GM-DCs or FL-DCs [2]; [4]): induced release of IL-12 and IL-10
TNF-a and oxidant production of neutrophils in the presence of lung T reg cells ([3]; T reg fraction induced by Thymosin alpha 1-treated GM-DCs): significantly inhibited
alloreactivity and antigen-specific responses of CD4+CD25- T cells in the presence of CD4+CD25+ T cells ([3]; T reg from mice receiving Thymosin alpha 1-treated GM-DCs): both reduced
alloreactivity (proliferation of TLN cells to allogeneic splenocytes) [3, 5]: decreased
pathogen-specific reactivity (proliferation to Aspergillus conidia) [3, 5]: recovered
